In brackets after ≈: the same amount, converted by molar mass. Where two headings read alike, the source gives them in different places.
Experiments:
Pasteurella multocida = assay: Efficacy against Pasteurella multocida infections in mice when administered by injection (Experiment 1); format: in vivo, Swiss mice; conditions: ip; for responders at 5 mg/kg: 5.0 mg./kg. i.p.; for responders at 2.5 mg/kg: 2.5 mg./kg. i.p.; for responders at 7.5 mg/kg: 7.5 mg./kg. i.p.
Method: The efficacy of the novel compounds against Pasteurella multocida infections in mice when administered by injection was studied.
Female Swiss mice weighing from 15 to about 20 g. were used. The test compound, 5.0 mg., was weighed out and dissolved in 0.5 ml. of dimethyl sulfoxide, and this solution was added to 9.5 ml. of sodium carboxymethylcellulose suspension. Groups of five mice each were injected intraperitoneally with 0.1 ml. each of the above-prepared test composition. This preparation gave a test rate of 2.5 mg. per kilo of body weight of mouse. The compounds were tested at 2.5, 5.0, or 7.5 mg. per kilo of body weight of mouse, and the test preparations for rates of 5.0 and 7.5 mg./kg. were prepared in a similar manner. Immediately after receiving the test compound, the mice were challenged using log10 dilutions of 10^-^4, 10^-^5, 10^-^6, and 10^-^7 of a 16 to 20-hour tryptose broth culture of Pasteurella multocida at 0.1 ml. per mouse subcutaneously. Similar groups of nontreated control mice were also challenged, the challenge being administered subcutaneously. The groups of mice were observed daily for mortality and the total mortality in treated groups compared with that which occurred in the nonmedicated control groups. Each test compound is identified by the number of the example describing its preparation.
In the chart, column 1 lists the test compound; column 2, the dosage of test compound in mg./kg. of mouse body weight; column 3, the dilution of the challenge organism; and column 4, the ratio of the number of mice surviving the test at each dosage and challenge dilution to the number of mice tested at each dosage and challenge dilution, called the survival ratio.

Clostridium ramosum 1313 = assay: Susceptibility of anaerobic bacteria, agar dilution; format: cell-based; conditions: read-out: 24 Hr. Minimum Inhibitory Concentration
[1] = tested on: Eubacterium aerofaciens 1235; assay: as above; format: cell-based; conditions: read-out: 24 Hr. Minimum Inhibitory Concentration
[2] = tested on: Peptococcus anaerobius 1428; assay: as above; format: cell-based; conditions: 24 h, read-out: 24 Hr. Minimum Inhibitory Concentration
[3] = tested on: Peptostreptococcus intermedius 1264; assay: as above; format: cell-based; conditions: 24 h; Peptostreptococcus intermedius 1264; read-out: 24 Hr. Minimum Inhibitory Concentration
[4] = tested on: Propionibacterium acnes 79; assay: as above; format: cell-based; conditions: read-out: 24 Hr. Minimum Inhibitory Concentration
[5] = tested on: Bacteroides fragilis sp. fragilis 1877; assay: as above; format: cell-based; conditions: 24 h, read-out: 24 Hr. Minimum Inhibitory Concentration
[6] = tested on: Bacteroides fragilis sp. thetaiotaomicron 1438; assay: as above; format: cell-based; conditions: 24 h, read-out: 24 Hr. Minimum Inhibitory Concentration
[7] = tested on: Bacteroides fragilis sp. vulgatus 1563; assay: as above; format: cell-based; conditions: 24 h, read-out: 24 Hr. Minimum Inhibitory Concentration
[8] = tested on: Bacteroides fragilis sp. vulgatus 1211; assay: as above; format: cell-based; conditions: 24 h, read-out: 24 Hr. Minimum Inhibitory Concentration
[9] = tested on: Fusobacterium symbiosum 1470; assay: as above; format: cell-based; conditions: read-out: 24 Hr. Minimum Inhibitory Concentration
Salmonella typhimurium = assay: Control of infections caused by Salmonella typhimurium in chickens, subcutaneous (Experiment 2); format: in vivo; conditions: Salmonella enterica, sc, 144 h, 6 days, read-out: Survival Ratio (converted); for responders at 3.75 mg/kg: 3.75 mg./kg. subcutaneous; for responders at 7.5 mg/kg: 7.5 mg./kg. subcutaneous; for responders at 15 mg/kg: 15 mg./kg. subcutaneous; for responders at 30 mg/kg: 30 mg./kg. subcutaneous; for responders at 60 mg/kg: 60 mg./kg. subcutaneous
[10] = challenge dilution 10^-^4, read-out: Survival Ratio (converted)
[11] = challenge dilution 10^-^5, read-out: Survival Ratio (converted)
[12] = challenge dilution 10^-^6, read-out: Survival Ratio (converted)
[13] = challenge dilution 10^-^7, read-out: Survival Ratio (converted)
[14] = challenge dilution 10^-^4, read-out: Survival Ratio
[15] = challenge dilution 10^-^5, read-out: Survival Ratio
[16] = challenge dilution 10^-^6, read-out: Survival Ratio
[17] = Thomasclavelia ramosa, 1313, 24 h
[18] = Collinsella aerofaciens, 1235, 24 h

Compound: CC(=O)Nc1c(C(=O)O)c(-c2ncc([N+](=O)[O-])n2C)nn1C [Compound 12, 5-acetamido-1-methyl-3-(1-methyl-5-nitro-2-imidazolyl)pyrazole-4-carboxylic acid]
- responders at 5 mg/kg (Pasteurella multocida; [10]): 0%
- responders at 5 mg/kg (Pasteurella multocida; [11]): 30%
- responders at 5 mg/kg (Pasteurella multocida; [12]): 70%
- MIC (Clostridium ramosum 1313; Thomasclavelia ramosa, 24 h, Clostridium ramosum 1313): 4 µg/mL (≈ 13 µM)
- MIC ([1]; Collinsella aerofaciens, 24 h, Eubacterium aerofaciens 1235): 1 µg/mL (≈ 3.24 µM)
- MIC ([2]; Peptococcus anaerobius 1428): 8 µg/mL (≈ 26 µM)
- MIC [3]: 32 µg/mL (≈ 104 µM)
- MIC ([4]; Cutibacterium acnes, 24 h, Propionibacterium acnes 79): 1 µg/mL (≈ 3.24 µM)
- MIC ([5]; Bacteroides fragilis sp. fragilis 1877): 4 µg/mL (≈ 13 µM)
- MIC ([6]; Bacteroides fragilis sp. thetaiotaomicron 1438): 2 µg/mL (≈ 6.49 µM)
- MIC ([7]; Bacteroides fragilis sp. vulgatus 1563): 1 µg/mL (≈ 3.24 µM)
- MIC ([8]; Bacteroides fragilis sp. vulgatus 1211): 2 µg/mL (≈ 6.49 µM)
- MIC ([9]; 24 h, Fusobacterium symbiosum 1470): < 0.125 µg/mL

Compound: COC=Nc1c(C#N)c(-c2ncc([N+](=O)[O-])n2C)nn1C [Compound 6, Methyl N-[4-cyano-1-methyl-3-(1-methyl-5-nitro-2-imidazolyl)pyrazol-5-yl]formimidate]
- responders at 2.5 mg/kg (Pasteurella multocida; [10]): 90%
- responders at 2.5 mg/kg (Pasteurella multocida; [11]): 50%
- responders at 2.5 mg/kg (Pasteurella multocida; [12]): 90%
- responders at 2.5 mg/kg (Pasteurella multocida; [13]): 100%
- responders at 5 mg/kg (Pasteurella multocida; [10]): 80%
- responders at 5 mg/kg (Pasteurella multocida; [11]): 90%
- responders at 5 mg/kg (Pasteurella multocida; [12]): 100%
- responders at 7.5 mg/kg (Pasteurella multocida; [14]): 90%
- responders at 7.5 mg/kg (Pasteurella multocida; [15]): 90%
- responders at 7.5 mg/kg (Pasteurella multocida; [16]): 100%
- responders at 3.75 mg/kg (Salmonella typhimurium): 80%
- responders at 7.5 mg/kg (Salmonella typhimurium): 90%
- responders at 15 mg/kg (Salmonella typhimurium): 50%
- responders at 30 mg/kg (Salmonella typhimurium): 50%
- responders at 60 mg/kg (Salmonella typhimurium): 46.7%
- MIC (Clostridium ramosum 1313; [17]): < 0.125 µg/mL
- MIC [1, 18]: < 0.125 µg/mL
- MIC [2]: < 0.125 µg/mL
- MIC [3]: 1 µg/mL (≈ 3.46 µM)
- MIC ([4]; Cutibacterium acnes, 79, 24 h): < 0.125 µg/mL
- MIC ([5]; Bacteroides fragilis): < 0.125 µg/mL
- MIC ([6]; Bacteroides fragilis): < 0.125 µg/mL
- MIC ([7]; Bacteroides fragilis): < 0.125 µg/mL
- MIC ([8]; Bacteroides fragilis): < 0.125 µg/mL
- MIC ([9]; Fusobacterium, 1470, 24 h): < 0.125 µg/mL

Compound: CCCCOC=Nc1c(C#N)c(-c2ncc([N+](=O)[O-])n2C)nn1C [Compound 7, Butyl N-[4-Cyano-1-methyl-3-(1-methyl-5-nitro-2-imidazolyl)-pyrazol-5-yl]formimidate]
- responders at 2.5 mg/kg (Pasteurella multocida; [10]): 15%
- responders at 2.5 mg/kg (Pasteurella multocida; [11]): 35%
- responders at 2.5 mg/kg (Pasteurella multocida; [12]): 70%
- responders at 5 mg/kg (Pasteurella multocida; [10]): 30%
- responders at 5 mg/kg (Pasteurella multocida; [11]): 45%
- responders at 5 mg/kg (Pasteurella multocida; [12]): 75%
- responders at 7.5 mg/kg (Pasteurella multocida; [14]): 50%
- responders at 7.5 mg/kg (Pasteurella multocida; [15]): 70%
- responders at 7.5 mg/kg (Pasteurella multocida; [16]): 100%
- responders at 7.5 mg/kg (Salmonella typhimurium): 0%
- responders at 15 mg/kg (Salmonella typhimurium): 55%
- responders at 30 mg/kg (Salmonella typhimurium): 40%
- responders at 60 mg/kg (Salmonella typhimurium): 55%
- MIC (Clostridium ramosum 1313; [17]): < 0.125 µg/mL
- MIC [1, 18]: < 0.125 µg/mL
- MIC [2]: < 0.125 µg/mL
- MIC [3]: 2 µg/mL (≈ 6.04 µM)
- MIC ([4]; Cutibacterium acnes, 79, 24 h): < 0.125 µg/mL
- MIC ([5]; Bacteroides fragilis): < 0.125 µg/mL
- MIC ([6]; Bacteroides fragilis): < 0.125 µg/mL
- MIC ([7]; Bacteroides fragilis): < 0.125 µg/mL
- MIC ([8]; Bacteroides fragilis): < 0.125 µg/mL
- MIC ([9]; Fusobacterium, 1470, 24 h): < 0.125 µg/mL

Compound: Cn1nc(-c2ncc([N+](=O)[O-])n2C)c(C#N)c1N [Compound 1, 5-Amino-1-methyl-3-(1-methyl-5-nitro-2-imidazolyl)pyrazole-4-carbonitrile]
- responders at 2.5 mg/kg (Pasteurella multocida; [10]): 10%
- responders at 2.5 mg/kg (Pasteurella multocida; [11]): 40%
- responders at 2.5 mg/kg (Pasteurella multocida; [12]): 80%
- responders at 2.5 mg/kg (Pasteurella multocida; [13]): 95%
- responders at 5 mg/kg (Pasteurella multocida; [10]): 30%
- responders at 5 mg/kg (Pasteurella multocida; [11]): 90%
- responders at 5 mg/kg (Pasteurella multocida; [12]): 90%
- responders at 5 mg/kg (Pasteurella multocida; [13]): 100%
- responders at 7.5 mg/kg (Pasteurella multocida; [14]): 70%
- responders at 7.5 mg/kg (Pasteurella multocida; [15]): 90%
- responders at 7.5 mg/kg (Pasteurella multocida; [16]): 100%
- responders at 3.75 mg/kg (Salmonella typhimurium): 44%
- responders at 7.5 mg/kg (Salmonella typhimurium): 62.9%
- responders at 15 mg/kg (Salmonella typhimurium): 72%
- responders at 30 mg/kg (Salmonella typhimurium): 54%
- responders at 60 mg/kg (Salmonella typhimurium): 67.1%
- MIC (Clostridium ramosum 1313; [17]): < 0.125 µg/mL
- MIC [1, 18]: < 0.125 µg/mL
- MIC [2]: < 0.125 µg/mL
- MIC [3]: 0.5 µg/mL (≈ 2.02 µM)
- MIC ([4]; Cutibacterium acnes, 79, 24 h): < 0.125 µg/mL
- MIC ([5]; Bacteroides fragilis): < 0.125 µg/mL
- MIC ([6]; Bacteroides fragilis): < 0.125 µg/mL
- MIC ([7]; Bacteroides fragilis): < 0.125 µg/mL
- MIC ([8]; Bacteroides fragilis): < 0.125 µg/mL
- MIC ([9]; Fusobacterium, 1470, 24 h): < 0.125 µg/mL
